In PubChem BioAssay (NCI):
Where “and” joins values, the source holds several entries; their conditions need not be identical. Equal values may be shown once.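 These data come from cells grown in 96-well plates and exposed to compound for 48 hours at five concentrations. Here, GI50 denotes the concentration required for 50% inhibition of growth. The concentration for full growth arrest is given as TGI.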

Assays:
Test in all cases: NCI-60 cell line screen, 48 h
OVCAR-3 ovarian = tested on: OVCAR-3 ovarian
SNB-75 CNS = tested on: SNB-75 CNS
CAKI-1 renal = tested on: CAKI-1 renal
UACC-62 melanoma = tested on: UACC-62 melanoma
RPMI-8226 leukemia = tested on: RPMI-8226 leukemia
NCI-H460 lung = tested on: NCI-H460 lung
HOP-62 NSCLC = tested on: HOP-62 NSCLC
OVCAR-5 ovarian = tested on: OVCAR-5 ovarian
SW-620 colon = tested on: SW-620 colon
T-47D breast = tested on: T-47D breast

Compound	TGI (OVCAR-3 ovarian) [µM]	TGI (SNB-75 CNS) [µM]	TGI (CAKI-1 renal) [µM]	TGI (UACC-62 melanoma) [µM]	TGI (RPMI-8226 leukemia) [µM]	TGI (NCI-H460 lung) [µM]	TGI (HOP-62 NSCLC) [µM]	TGI (OVCAR-5 ovarian)	TGI (SW-620 colon) [µM]	GI50 (OVCAR-3 ovarian) [µM]	GI50 (SNB-75 CNS) [µM]	GI50 (CAKI-1 renal) [µM]	GI50 (UACC-62 melanoma) [µM]	GI50 (T-47D breast) [µM]	TGI (T-47D breast)	GI50 (RPMI-8226 leukemia) [µM]	GI50 (NCI-H460 lung) [µM]	GI50 (OVCAR-5 ovarian) [µM]	GI50 (SW-620 colon) [µM]	GI50 (HOP-62 NSCLC) [µM]
O=C(O)C1CC2C=CCC(C2)C1 (stereo not given)	> 100	> 100	> 100	> 100	> 100	> 100	> 100	> 100 µM	> 100	–	–	–	–	–	–	–	–	–	–	–
CCNC(=O)COc1ccc(Cl)c(C)c1	> 100	> 100	> 100	> 100	> 100	> 100	> 100	> 100 µM	> 100	–	–	–	–	–	–	–	–	–	–	–
CCOC(=O)/C=C/c1ccc([N+](=O)[O-])o1	9.21	94	4.38	4.36	12.2	38.9	–	8.13 µM	7.16	3.13	4.6	2.06	1.71	5.55	25.9 µM	3.18	18.1	2.95	2.38	–
COc1ccc(-c2cn3ccnc3c(-c3ccc(Cl)cc3)n2)cc1	71.8	> 100	11	> 100	91.3	> 100	> 100	> 100 µM	> 100	3.19	6.85	2.9	19.4	–	–	4.58	10.8	9.52	4.51	16.3
COc1ccc(OCC(=O)O)c2c1CCC(C)C2=O (stereo not given)	> 100	–	> 100	> 100	> 100	> 100	> 100	> 100 µM	> 100	–	–	–	–	–	–	–	–	–	–	–
COC(OC)c1cccnc1C	> 100	> 100	> 100	> 100	–	> 100	> 100	> 100 µM	> 100	–	–	–	–	–	–	–	–	–	–	–
O=C1C(=O)N(c2cc(Cl)ccc2Cl)C(=O)C(=O)C1c1nc2ccccc2s1	> 100	> 100	> 100	> 100	> 100	> 100	> 100	> 100 µM	> 100	–	–	–	–	–	–	–	–	–	–	–
OC[C@H]1N[C@H](CO)[C@@H](O)[C@H]1O	–	> 100	> 100	> 100	> 100	–	> 100	> 100 µM	> 100	–	–	–	–	–	> 100 µM	–	–	–	–	–
Cc1nc(Nc2ccc(Cl)cc2)sc1C(=O)Nc1cccc2c(=O)[nH][nH]c(=O)c12	40.4	83.4	> 100	16.4	–	88.6	> 100	> 100 µM	> 100	–	–	–	–	–	–	–	–	–	–	–
CC(C)(C1=NC(C(C)(C)C)CO1)C1=N[C@@H](C(C)(C)C)CO1 (stereo not given in full)	> 100	> 100	–	> 100	> 100	> 100	> 100	> 100 µM	> 100	–	–	–	–	–	–	–	–	–	–	–
COc1cc(C2CC(c3ccc(Cl)cc3)=NN2C(C)=O)ccc1Oc1ccnc2cc(Cl)ccc12 (stereo not given)	–	7.76	> 100	> 100	> 100	–	–	> 100 µM	> 100	–	1.66	> 100	> 100	2.85	> 100 µM	> 100	–	> 100	> 100	–
Nc1ccc(C(=O)N/C(=C\c2ccc3c(c2)OCO3)c2nc3ccccc3s2)cc1	30.8	–	29.7	33.2	–	–	–	36.5 µM	23.6	–	–	–	–	–	–	–	–	–	–	–
CN(C)C(=S)/N=c1\ssc(=Nc2ccccc2)n1-c1ccccc1	28.3	36.5	75.6	–	–	–	75.5	> 100 µM	> 100	–	–	–	–	–	–	–	–	–	–	–
COc1c2c(c(O)c3c4c(c(C)cc13)C1OC3(C(OC)OC5CC(C)(O)C(OC6CC(C)(O)C(O)C(C)O6)C(C)O5)OC1C(OC)(O4)C31CO1)C(=O)C(O)CC2OC1CC(C)(O)C(OC(C)=O)C(C)O1 (stereo not given)	< 0.01	< 0.01	2.71	< 0.01	< 0.01	0.15	–	< 0.01 µM	1.23	–	–	–	–	–	–	–	–	–	–	–
C/C(=C\c1ccccc1)C(=O)c1c(C)cc(C)cc1C	> 100	> 100	> 100	> 100	> 100	> 100	> 100	–	> 100	–	–	–	–	–	–	–	–	–	–	–
Cc1cccc(C=NC23CC4CC(CC(C4)C2)C3)c1	> 100	> 100	> 100	> 100	> 100	> 100	> 100	> 100 µM	> 100	–	–	–	–	–	–	–	–	–	–	–
CN1C2C=CC(=O)C1C(C#N)C2 (stereo not given)	> 100	–	–	> 100	–	> 100	> 100	15.7 µM and > 100 µM	> 100	–	–	–	–	–	75.9 µM and > 100 µM	–	–	–	–	–
COC(=O)CCC(NC(=S)N/N=C(\C)c1cccs1)C(=O)OC (stereo not given)	> 100	> 100	–	> 100	–	> 100	> 100	> 100 µM	> 100	–	–	–	–	–	–	–	–	–	–	–
O=C(NCCCN1CCN(CCCNC(=O)Nc2cc(Cl)ccc2Cl)CC1)Nc1cc(Cl)ccc1Cl	> 100	82	> 100	> 100	> 100	> 100	> 100	> 100 µM	> 100	–	–	–	–	–	–	–	–	–	–	–
c1ccc(N2CCN(CCN3CCc4c([nH]c5ccccc45)C3c3cccnc3)CC2)cc1 (stereo not given)	> 100	9.7	> 100	> 100	> 100	> 100	> 100	> 100 µM	> 100	–	–	–	–	–	–	–	–	–	–	–
CCOC(=N)CC(=O)Nc1ccccc1CC	> 100	> 100	> 100	> 100	–	> 100	> 100	> 100 µM	> 100	–	–	–	–	–	–	–	–	–	–	–
Cn1cnnc1Sc1c([N+](=O)[O-])nc(-c2ccc([N+](=O)[O-])cc2)n1C	30.8	87.5	> 100	30.4	37.8	> 100	> 100	52 µM	31.3	–	–	–	–	–	–	–	–	–	–	–
CCNc1ccc2c(c1)C(=O)N(OS(C)(=O)=O)C2=O	> 100	–	> 100	> 100	87.3	> 100	> 100	–	> 100	–	–	–	–	–	> 100 µM	–	–	–	–	–
